Laboratory results reported in ChEMBL document CHEMBL4334438, “Discovery of novel glycogen synthase kinase-3α inhibitors: Structure-based virtual screening, preliminary SAR and biological evaluation for treatment of acute myeloid leukemia” (Eur J Med Chem, 2019).

Tests used:
[1] = tested on: Epidermal growth factor receptor (Homo sapiens), P00533 [T790M]; assay: Inhibition of recombinant human EGFR T790M mutant (696 to end residues) assessed as residual activity at 1 uM using poly(Glu, Tyr) 4:1 as substrate at 40 mins in presence of [gamma-33ATP] by scintillation counting based radiometry assay relative to control
[2] = target: Serine/threonine-protein kinase MRCK beta (Homo sapiens) (UniProt Q9Y5S2); assay: Inhibition of recombinant human MRCKbeta (1 to 473 residues) assessed as residual activity at 1 uM using KKRNRTLTV as substrate measured after 40 mins in presence of [gamma33P]ATP by scintillation counting method relative to control
[3] = target: Cyclin-dependent kinase 5/CDK5 activator 1 (Homo sapiens) (UniProt Q00535+Q15078); assay: Inhibition of recombinant full length human CDK5/p25 assessed as residual activity at 1 uM using histone H1 as substrate incubated for 40 mins in presence of [gamma-33ATP] by scintillation counting based radiometry assay relative to control; format: protein-complex assay
[4] = target: Mitogen-activated protein kinase kinase kinase kinase 3 (Homo sapiens) (UniProt Q8IVH8); assay: Inhibition of recombinant human MAP4K3 (1 to 291 residues) assessed as residual activity at 1 uM using RLGRDKYKTLRQIRQ as substrate incubated for 40 mins in presence of [gamma-33ATP by scintillation counting based radiometry assay relative to control
[5] = target: Mitogen-activated protein kinase 8 (Homo sapiens) (UniProt P45983); assay: Inhibition of human JNK1alpha1 assessed as residual activity at 1 uM using ATF2 as substrate after 40 mins by [gamma-33ATP] radiometric assay relative to control
[6] = target: Mitogen-activated protein kinase kinase kinase 3 (Homo sapiens) (UniProt Q99759); assay: Inhibition of recombinant full length human MEKK3 assessed as residual activity at 1 uM using myelin basic protein as substrate incubated for 120 mins in presence of [gamma-33ATP by scintillation counting based radiometry assay relative to control
[7] = target: Serine/threonine-protein kinase NLK (Homo sapiens) (UniProt Q9UBE8); assay: Inhibition of recombinant human NLK (121 to end residues) assessed as residual activity at 1 uM using myelin basic protein as substrate measured after 40 mins in presence of [gamma33P]ATP by scintillation counting method relative to control
Homo sapiens = organism: Homo sapiens; assay: Inhibition of recombinant human Ros V2262A mutant (1883 to end residues) assessed as residual activity at 1 uM using KKKSPGEYVNIEFG as substrate measured after 40 mins in presence of [gamma33P]ATP by scintillation counting method relative to control
[8] = target: Serine/threonine-protein kinase 26 (Homo sapiens) (UniProt Q9P289); assay: Inhibition of recombinant human MST4 (4 to 304 residues) assessed as residual activity at 1 uM using RLGRDKYKTLRQIRQ as substrate measured after 40 mins in presence of [gamma33P]ATP by scintillation counting method relative to control
[9] = target: 3-phosphoinositide-dependent protein kinase 1 (Homo sapiens) (UniProt O15530); assay: Inhibition of recombinant human PDK1 (52 to end residues) assessed as residual activity at 1 uM using PDKtide as substrate measured after 40 mins in presence of [gamma33P]ATP by scintillation counting method relative to control
[10] = target: Tyrosine-protein kinase Yes (Homo sapiens) (UniProt P07947); assay: Inhibition of recombinant full-length human Yes at 1 uM assessed as residual activity at 1 uM using poly(Glu, Tyr) 4:1 as substrate measured after 40 mins in presence of [gamma33P]ATP by scintillation counting method relative to control
[11] = target: Serine/threonine-protein kinase SIK2 (Homo sapiens) (UniProt Q9H0K1); assay: Inhibition of recombinant human SIK2 (1 to 276 residues) assessed as residual activity at 1 uM using KKKVSRSGLYRSPSMPENLNRPR as substrate measured after 40 mins in presence of [gamma33P]ATP by scintillation counting method relative to control
[12] = target: Tyrosine-protein kinase ITK/TSK (Homo sapiens) (UniProt Q08881); assay: Inhibition of human Itk (352 to 617 residues) assessed as residual activity at 1 uM using myelin basic protein as substrate after 40 mins by [gamma-33ATP] radiometric assay relative to control
[13] = target: Tyrosine-protein kinase Fes/Fps (Homo sapiens) (UniProt P07332); assay: Inhibition of recombinant human FES (2 to end residues) assessed as residual activity at 1 uM using poly(Glu, Tyr) 4:1 as substrate at 40 mins in presence of [gamma-33ATP] by scintillation counting based radiometry assay relative to control
[14] = target: MAP/microtubule affinity-regulating kinase 3 (Homo sapiens) (UniProt P27448); assay: Inhibition of recombinant full length human MARK3 assessed as residual activity at 1 uM using KKKVSRSGLYRSP as substrate incubated for 40 mins in presence of [gamma-33ATP by scintillation counting based radiometry assay relative to control
[15] = target: Dual specificity tyrosine-phosphorylation-regulated kinase 1B (Homo sapiens) (UniProt Q9Y463); assay: Inhibition of recombinant human DYRK1B assessed as residual activity at 1 uM using RRRFRPASPLRGPPK as substrate at 40 mins in presence of [gamma-33ATP] by scintillation counting based radiometry assay relative to control
[16] = tested on: Mast/stem cell growth factor receptor Kit (Homo sapiens), P10721 [D816H]; assay: Inhibition of recombinant human C-Kit D816H mutant (544 to end residues) assessed as residual activity at 1 uM poly(Glu, Tyr) 4:1 as substrate incubated 40 mins in presence of [gamma-33ATP] by scintillation counting based radiometry assay relative to control
[17] = target: Serine/threonine-protein kinase 25 (Homo sapiens) (UniProt O00506); assay: Inhibition of human STK25 (1 to 308 residues) assessed as residual activity at 1 uM using RLGRDKYKTLRQIRQ as substrate measured after 40 mins in presence of [gamma33P]ATP by scintillation counting method relative to control
[18] = target: Epidermal growth factor receptor (Homo sapiens) (UniProt P00533); assay: Inhibition of recombinant human EGFR (696 to end residues) assessed as residual activity at 1 uM using poly(Glu, Tyr) 4:1 as substrate at 40 mins in presence of [gamma-33ATP] by scintillation counting based radiometry assay relative to control
[19] = target: Serine/threonine-protein kinase D3 (Homo sapiens) (UniProt O94806); assay: Inhibition of recombinant full-length human PKD3 assessed as residual activity at 1 uM using KKLRRTLSVA as substrate measured after 40 mins in presence of [gamma33P]ATP by scintillation counting method relative to control
[20] = target: Ribosomal protein S6 kinase alpha-3 (Homo sapiens) (UniProt P51812); assay: Inhibition of recombinant human Rsk2 (2 to end residues) assessed as residual activity at 1 uM using KKKNRTLSVA as substrate measured after 40 mins in presence of [gamma33P]ATP by scintillation counting method relative to control
Chain of Ribosomal protein S6 kinase alpha-3 (Homo sapiens) (P51812 whole entry): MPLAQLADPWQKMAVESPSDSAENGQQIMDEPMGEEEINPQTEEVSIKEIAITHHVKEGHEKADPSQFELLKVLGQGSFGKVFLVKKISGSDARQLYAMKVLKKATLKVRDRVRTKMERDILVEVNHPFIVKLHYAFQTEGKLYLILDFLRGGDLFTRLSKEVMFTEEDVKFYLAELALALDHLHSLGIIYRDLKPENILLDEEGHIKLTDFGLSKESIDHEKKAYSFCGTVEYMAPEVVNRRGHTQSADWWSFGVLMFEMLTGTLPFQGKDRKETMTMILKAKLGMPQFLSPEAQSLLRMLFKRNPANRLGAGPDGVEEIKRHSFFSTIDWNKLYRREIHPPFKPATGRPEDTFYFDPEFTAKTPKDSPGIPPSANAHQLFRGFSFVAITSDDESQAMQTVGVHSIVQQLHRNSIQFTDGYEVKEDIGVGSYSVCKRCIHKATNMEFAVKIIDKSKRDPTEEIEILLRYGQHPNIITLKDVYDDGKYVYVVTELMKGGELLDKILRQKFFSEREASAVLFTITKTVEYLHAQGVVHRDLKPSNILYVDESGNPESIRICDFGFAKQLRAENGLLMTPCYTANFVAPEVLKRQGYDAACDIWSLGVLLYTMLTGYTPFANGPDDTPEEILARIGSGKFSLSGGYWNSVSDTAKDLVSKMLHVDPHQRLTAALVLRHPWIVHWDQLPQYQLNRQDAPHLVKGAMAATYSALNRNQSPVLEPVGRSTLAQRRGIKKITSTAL

Chain of 3-phosphoinositide-dependent protein kinase 1 (Homo sapiens) (O15530 whole entry): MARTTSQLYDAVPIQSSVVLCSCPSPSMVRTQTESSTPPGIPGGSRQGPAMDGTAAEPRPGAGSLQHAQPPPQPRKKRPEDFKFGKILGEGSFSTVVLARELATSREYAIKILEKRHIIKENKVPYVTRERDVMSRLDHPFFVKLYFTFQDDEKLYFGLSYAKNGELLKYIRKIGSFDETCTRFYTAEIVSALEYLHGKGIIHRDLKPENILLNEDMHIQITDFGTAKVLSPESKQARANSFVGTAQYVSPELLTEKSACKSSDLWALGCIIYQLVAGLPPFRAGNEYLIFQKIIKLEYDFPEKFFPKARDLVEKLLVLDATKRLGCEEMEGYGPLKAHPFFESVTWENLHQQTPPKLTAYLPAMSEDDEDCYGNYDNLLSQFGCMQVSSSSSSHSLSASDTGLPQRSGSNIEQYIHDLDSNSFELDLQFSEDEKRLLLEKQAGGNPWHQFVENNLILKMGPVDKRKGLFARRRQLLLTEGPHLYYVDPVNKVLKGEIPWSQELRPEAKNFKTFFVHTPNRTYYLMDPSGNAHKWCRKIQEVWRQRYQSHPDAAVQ
Chain of Serine/threonine-protein kinase D3 (Homo sapiens) (O94806 whole entry): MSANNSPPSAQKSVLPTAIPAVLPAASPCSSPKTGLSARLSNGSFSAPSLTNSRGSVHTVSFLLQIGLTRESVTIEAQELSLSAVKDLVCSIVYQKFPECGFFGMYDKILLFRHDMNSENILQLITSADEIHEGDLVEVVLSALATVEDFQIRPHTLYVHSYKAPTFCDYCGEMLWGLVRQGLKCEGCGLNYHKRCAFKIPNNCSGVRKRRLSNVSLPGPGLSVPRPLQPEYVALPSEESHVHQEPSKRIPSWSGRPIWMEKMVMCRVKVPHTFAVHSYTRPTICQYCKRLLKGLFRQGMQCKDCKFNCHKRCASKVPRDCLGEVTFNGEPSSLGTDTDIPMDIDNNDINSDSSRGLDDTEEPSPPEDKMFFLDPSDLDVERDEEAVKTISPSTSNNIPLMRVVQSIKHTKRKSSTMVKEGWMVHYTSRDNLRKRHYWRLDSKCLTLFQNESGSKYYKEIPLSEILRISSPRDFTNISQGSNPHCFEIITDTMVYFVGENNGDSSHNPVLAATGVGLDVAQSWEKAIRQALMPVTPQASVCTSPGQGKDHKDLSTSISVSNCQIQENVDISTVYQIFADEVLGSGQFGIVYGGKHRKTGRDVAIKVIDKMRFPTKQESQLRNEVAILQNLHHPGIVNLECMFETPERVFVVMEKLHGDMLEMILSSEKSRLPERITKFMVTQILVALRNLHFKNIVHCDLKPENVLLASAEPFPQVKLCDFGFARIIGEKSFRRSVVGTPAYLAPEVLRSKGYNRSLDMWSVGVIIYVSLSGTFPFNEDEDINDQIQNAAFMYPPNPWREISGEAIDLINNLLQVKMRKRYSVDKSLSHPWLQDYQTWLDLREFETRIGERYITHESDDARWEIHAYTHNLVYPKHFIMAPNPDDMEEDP
Chain of Serine/threonine-protein kinase MRCK beta (Homo sapiens) (Q9Y5S2 whole entry, the tested form may be a part): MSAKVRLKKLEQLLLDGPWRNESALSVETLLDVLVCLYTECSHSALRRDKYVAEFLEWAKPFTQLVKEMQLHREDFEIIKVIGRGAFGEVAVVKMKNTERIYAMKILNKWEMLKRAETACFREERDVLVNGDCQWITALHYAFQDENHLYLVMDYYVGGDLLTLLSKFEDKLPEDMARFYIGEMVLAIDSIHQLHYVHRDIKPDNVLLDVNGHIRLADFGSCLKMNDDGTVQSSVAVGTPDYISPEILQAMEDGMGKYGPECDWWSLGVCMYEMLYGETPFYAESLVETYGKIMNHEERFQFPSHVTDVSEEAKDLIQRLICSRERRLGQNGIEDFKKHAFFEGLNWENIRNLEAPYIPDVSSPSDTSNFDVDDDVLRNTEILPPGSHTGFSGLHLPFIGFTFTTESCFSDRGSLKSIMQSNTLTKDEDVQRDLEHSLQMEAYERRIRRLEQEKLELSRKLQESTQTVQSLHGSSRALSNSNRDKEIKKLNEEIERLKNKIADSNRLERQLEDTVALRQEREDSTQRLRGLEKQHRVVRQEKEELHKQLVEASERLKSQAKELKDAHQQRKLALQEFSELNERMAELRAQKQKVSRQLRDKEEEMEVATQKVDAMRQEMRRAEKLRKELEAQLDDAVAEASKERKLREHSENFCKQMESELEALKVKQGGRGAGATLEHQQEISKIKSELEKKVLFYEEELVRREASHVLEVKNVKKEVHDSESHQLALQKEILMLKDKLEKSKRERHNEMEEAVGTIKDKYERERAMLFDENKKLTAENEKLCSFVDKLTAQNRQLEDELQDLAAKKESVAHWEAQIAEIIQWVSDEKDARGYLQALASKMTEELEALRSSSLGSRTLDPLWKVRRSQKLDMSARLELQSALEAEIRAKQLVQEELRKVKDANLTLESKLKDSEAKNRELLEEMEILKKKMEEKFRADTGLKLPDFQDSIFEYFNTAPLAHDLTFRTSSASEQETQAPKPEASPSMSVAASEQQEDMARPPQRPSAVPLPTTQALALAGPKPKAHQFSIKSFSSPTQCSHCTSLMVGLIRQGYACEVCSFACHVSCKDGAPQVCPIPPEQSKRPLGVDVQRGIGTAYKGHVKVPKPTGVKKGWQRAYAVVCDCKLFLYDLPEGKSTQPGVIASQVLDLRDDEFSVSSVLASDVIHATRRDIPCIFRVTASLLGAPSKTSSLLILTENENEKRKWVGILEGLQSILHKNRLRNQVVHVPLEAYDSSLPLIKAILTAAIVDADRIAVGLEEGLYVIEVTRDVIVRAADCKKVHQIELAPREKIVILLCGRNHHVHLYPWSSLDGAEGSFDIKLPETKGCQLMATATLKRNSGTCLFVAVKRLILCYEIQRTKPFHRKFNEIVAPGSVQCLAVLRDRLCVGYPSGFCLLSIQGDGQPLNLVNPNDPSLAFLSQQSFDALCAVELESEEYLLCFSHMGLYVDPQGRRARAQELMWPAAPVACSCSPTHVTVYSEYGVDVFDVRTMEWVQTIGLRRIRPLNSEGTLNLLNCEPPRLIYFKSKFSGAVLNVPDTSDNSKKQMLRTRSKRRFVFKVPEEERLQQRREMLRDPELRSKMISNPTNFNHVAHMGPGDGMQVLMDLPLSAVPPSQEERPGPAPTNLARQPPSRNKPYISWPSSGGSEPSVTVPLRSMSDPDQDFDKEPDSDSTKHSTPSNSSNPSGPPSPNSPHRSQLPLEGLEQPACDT
Chain of Mitogen-activated protein kinase kinase kinase kinase 3 (Homo sapiens) (Q8IVH8 whole entry, the tested form may be a part): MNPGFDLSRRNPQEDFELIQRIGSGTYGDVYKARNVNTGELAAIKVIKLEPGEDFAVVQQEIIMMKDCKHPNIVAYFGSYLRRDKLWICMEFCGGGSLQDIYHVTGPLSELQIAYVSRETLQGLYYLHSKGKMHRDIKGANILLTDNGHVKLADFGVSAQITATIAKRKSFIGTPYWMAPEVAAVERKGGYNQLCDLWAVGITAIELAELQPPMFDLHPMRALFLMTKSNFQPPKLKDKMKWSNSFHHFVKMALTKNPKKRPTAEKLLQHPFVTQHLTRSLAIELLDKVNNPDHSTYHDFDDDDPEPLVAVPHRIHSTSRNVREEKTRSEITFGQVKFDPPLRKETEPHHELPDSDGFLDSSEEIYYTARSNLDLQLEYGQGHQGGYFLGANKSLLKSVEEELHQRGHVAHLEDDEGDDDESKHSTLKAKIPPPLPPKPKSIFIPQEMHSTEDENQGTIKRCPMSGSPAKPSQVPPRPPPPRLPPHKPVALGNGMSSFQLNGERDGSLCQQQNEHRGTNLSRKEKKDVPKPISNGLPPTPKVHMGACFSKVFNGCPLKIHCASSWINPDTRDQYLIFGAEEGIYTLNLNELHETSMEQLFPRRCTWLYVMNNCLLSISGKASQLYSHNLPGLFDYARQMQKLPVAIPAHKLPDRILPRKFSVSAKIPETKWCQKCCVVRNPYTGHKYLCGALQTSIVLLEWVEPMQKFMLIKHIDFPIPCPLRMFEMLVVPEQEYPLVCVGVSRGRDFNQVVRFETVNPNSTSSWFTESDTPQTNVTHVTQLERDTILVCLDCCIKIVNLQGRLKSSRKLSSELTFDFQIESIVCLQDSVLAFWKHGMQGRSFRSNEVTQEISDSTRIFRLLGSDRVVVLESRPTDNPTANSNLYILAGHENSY

N=C1NC(=O)/C(=C\c2ccc(-c3cccc([N+](=O)[O-])c3)o2)S1
Activity [1]: 101%
Activity [2]: 94%
Activity [3]: 75%
Activity [4]: 102%
Activity [5]: 101%
Activity [6]: 98%
Activity [7]: 59%
Activity (Homo sapiens): 95%
Activity [8]: 94%
Activity [9]: 96%
Activity [10]: 76%
Activity [11]: 99%
Activity [12]: 98%
Activity [13]: 103%
Activity [14]: 100%
Activity [15]: 80%
Activity [16]: 89%
Activity [17]: 97%
Activity [18]: 91%
Activity [19]: 89%
Activity [20]: 85%

C=CCOC(=O)c1cc(-c2ccc(/C=C3/NC(=S)NC3=O)o2)ccc1Cl
Activity [1]: 90%
Activity [2]: 110%
Activity [3]: 58%
Activity [4]: 99%
Activity [5]: 99%
Activity [6]: 96%
Activity [7]: 64%
Activity (Homo sapiens): 118%
Activity [8]: 93%
Activity [9]: 87%
Activity [10]: 90%
Activity [11]: 104%
Activity [12]: 107%
Activity [13]: 91%
Activity [14]: 99%
Activity [15]: 88%
Activity [16]: 97%
Activity [17]: 90%
Activity [18]: 106%
Activity [19]: 94%
Activity [20]: 112%
